Experimental data as given in ChEMBL document CHEMBL1201862, “PubChem BioAssay data set” (2004).
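Step 1: Grow cells in 96-well plates. Step 2: Expose to compound for 48 hours at 5 concentrations. Step 3: Interpolate endpoints linearly; if unreached, use highest concentration. At the GI50, growth is halved.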 Active and inactive are the calls of the source. No stated cut-off is given here; in the data, active = GI50 up to about 1.1 µM and inactive = higher.

Tests used:
Assay in all cases: NCI anticancer screen, dose series, 48 h
LOX IMVI = test system: LOX IMVI
SNB-19 = test system: SNB-19
MOLT-4 = test system: MOLT-4
MCF7 = test system: MCF7
A549 = test system: A549
NCI-H460 = test system: NCI-H460
DU-145 = test system: DU-145
RXF 393 = test system: RXF 393
SK-MEL-5 = test system: SK-MEL-5
Hs-578T = test system: Hs-578T
HL-60 = test system: HL-60
EKVX = test system: EKVX
KM12 = test system: KM12
U-251 = test system: U-251
T47D = test system: T47D
BT-549 = test system: BT-549
MDA-MB-231 = test system: MDA-MB-231
SK-MEL-28 = test system: SK-MEL-28
TK-10 = test system: TK-10
SR = test system: SR

O/N=N/c1ccc(-c2ccccc2)cn1
GI50 (LOX IMVI): 6.21 µM (inactive) | GI50 (SNB-19): 18.1 µM (inactive) | GI50 (MOLT-4): 0.0755 µM (active) | GI50 (MCF7): 1.44 µM (inactive) | GI50 (A549): 21.7 µM (inactive) | GI50 (NCI-H460): 6.25 µM (inactive) | GI50 (DU-145): 2.22 µM (inactive) | GI50 (RXF 393): 1.38 µM (inactive) | GI50 (SK-MEL-5): 11.9 µM (inactive) | GI50 (Hs-578T): 23.8 µM (inactive) | GI50 (HL-60): 0.176 µM (active) | GI50 (EKVX): 7.5 µM (inactive) | GI50 (KM12): 33.9 µM (inactive) | GI50 (U-251): 15.7 µM (inactive) | GI50 (T47D): 8.18 µM (inactive) | GI50 (BT-549): 30.7 µM (inactive) | GI50 (MDA-MB-231): 28.6 µM (inactive) | GI50 (SK-MEL-28): 45.2 µM (inactive) | GI50 (TK-10): 22.3 µM (inactive)

COC(=O)[C@]1(C)CC[C@]2(C)CC[C@]3(C)C4[C@H]5Oc6c(cc7c(c6C)CCC6[C@@]7(C)CC[C@@]7(C)C8[C@](C)(CCC[C@@]8(C)C(=O)OC)CC[C@]67C)O[C@H]5c5c(cc6c(c5C)O[C@@]5(C)C7=CC=C8[C@@](C)(CC[C@@]9(C)[C@@H]%10C[C@](C)(C(=O)OC)CC[C@]%10(C)CC[C@]89C)C7=CC(=O)[C@@]5(O)O6)[C@]4(C)CC[C@@]3(C)C2C1 (stereo partly drawn)
GI50 (LOX IMVI): 2.27 µM (inactive) | GI50 (SNB-19): 5.05 µM (inactive) | GI50 (MOLT-4): 1.39 µM (inactive) | GI50 (MCF7): 3.11 µM (inactive) | GI50 (A549): > 12.5 µM (inactive) | GI50 (NCI-H460): 8.91 µM (inactive) | GI50 (DU-145): 3.6 µM (inactive) | GI50 (RXF 393): 1.91 µM (inactive) | GI50 (SK-MEL-5): 3.69 µM (inactive) | GI50 (Hs-578T): 5.78 µM (inactive) | GI50 (HL-60): 5.32 µM (inactive) | GI50 (EKVX): 3.42 µM (inactive) | GI50 (KM12): > 12.5 µM (inactive) | GI50 (U-251): 3.66 µM (inactive) | GI50 (T47D): 2.11 µM (inactive) | GI50 (BT-549): 7.03 µM (inactive) | GI50 (MDA-MB-231): 3.11 µM (inactive) | GI50 (SK-MEL-28): 7.53 µM (inactive) | GI50 (TK-10): 2.6 µM (inactive)

S=c1[nH]c2c(Cl)c(Cl)c(Cl)c(Cl)c2[nH]1
GI50 (LOX IMVI): 8.69 µM (inactive) | GI50 (SNB-19): 27.9 µM (inactive) | GI50 (MOLT-4): 4.8 µM (inactive) | GI50 (MCF7): 16.8 µM (inactive) | GI50 (A549): 25.2 µM (inactive) | GI50 (NCI-H460): 19.4 µM (inactive) | GI50 (DU-145): 36.1 µM (inactive) | GI50 (RXF 393): 18.1 µM (inactive) | GI50 (SK-MEL-5): 17.6 µM (inactive) | GI50 (Hs-578T): 18.5 µM (inactive) | GI50 (HL-60): 1.75 µM (inactive) | GI50 (EKVX): 11.8 µM (inactive) | GI50 (KM12): 15.5 µM (inactive) | GI50 (U-251): 31.7 µM (inactive) | GI50 (T47D): 52.5 µM (inactive) | GI50 (BT-549): 17.9 µM (inactive) | GI50 (MDA-MB-231): 17.8 µM (inactive) | GI50 (TK-10): 22 µM (inactive)

CCCC[C@H]1CCN2C[C@@H](O)[C@@H](O)[C@H]2[C@@H]1O
GI50 (LOX IMVI): > 100 µM (inactive) | GI50 (SNB-19): > 100 µM (inactive) | GI50 (MOLT-4): > 100 µM (inactive) | GI50 (MCF7): > 100 µM (inactive) | GI50 (A549): > 100 µM (inactive) | GI50 (NCI-H460): > 100 µM (inactive) | GI50 (DU-145): > 100 µM (inactive) | GI50 (SK-MEL-5): > 100 µM (inactive) | GI50 (Hs-578T): > 100 µM (inactive) | GI50 (HL-60): > 100 µM (inactive) | GI50 (EKVX): > 100 µM (inactive) | GI50 (KM12): > 100 µM (inactive) | GI50 (U-251): > 100 µM (inactive) | GI50 (T47D): > 100 µM (inactive) | GI50 (BT-549): > 100 µM (inactive) | GI50 (MDA-MB-231): > 100 µM (inactive) | GI50 (SK-MEL-28): > 100 µM (inactive) | GI50 (TK-10): > 100 µM (inactive)

CC(=O)c1cc2c(s1)C(=O)c1ccsc1C2=O
GI50 (LOX IMVI): 0.0414 µM (active) | GI50 (SNB-19): 0.294 µM (active) | GI50 (MOLT-4): 0.438 µM (active) | GI50 (MCF7): 0.293 µM (active) | GI50 (A549): 2.05 µM (inactive) | GI50 (DU-145): 0.309 µM (active) | GI50 (RXF 393): 0.244 µM (active) | GI50 (SK-MEL-5): 0.0559 µM (active) | GI50 (Hs-578T): 0.158 µM (active) | GI50 (HL-60): 0.0442 µM (active) | GI50 (EKVX): 1.87 µM (inactive) | GI50 (KM12): 1.61 µM (inactive) | GI50 (U-251): 0.233 µM (active) | GI50 (T47D): 1.31 µM (inactive) | GI50 (BT-549): 0.182 µM (active) | GI50 (MDA-MB-231): 0.327 µM (active) | GI50 (SK-MEL-28): 0.185 µM (active) | GI50 (TK-10): 1.97 µM (inactive)

COC(=O)[C@@H]1N2C(=S)N(c3ccccc3)C(=O)[C@H]2SC1(C)C
GI50 (SNB-19): > 100 µM (inactive) | GI50 (MOLT-4): > 100 µM (inactive) | GI50 (MCF7): > 100 µM (inactive) | GI50 (A549): > 100 µM (inactive) | GI50 (SR): 65.6 µM (inactive) | GI50 (NCI-H460): > 100 µM (inactive) | GI50 (DU-145): > 100 µM (inactive) | GI50 (RXF 393): > 100 µM (inactive) | GI50 (SK-MEL-5): > 100 µM (inactive) | GI50 (EKVX): > 100 µM (inactive) | GI50 (KM12): > 100 µM (inactive) | GI50 (U-251): > 100 µM (inactive) | GI50 (T47D): > 100 µM (inactive) | GI50 (BT-549): > 100 µM (inactive) | GI50 (MDA-MB-231): > 100 µM (inactive) | GI50 (SK-MEL-28): > 100 µM (inactive) | GI50 (TK-10): > 100 µM (inactive)

CC1C2(C)OC(=N)C(C#N)(C(c3ccco3)O2)C1(C#N)C#N (stereo not drawn)
GI50 (LOX IMVI): 19.2 µM (inactive) | GI50 (SNB-19): 42.5 µM (inactive) | GI50 (MOLT-4): 32.2 µM (inactive) | GI50 (MCF7): 22.4 µM (inactive) | GI50 (A549): > 100 µM (inactive) | GI50 (NCI-H460): 19.3 µM (inactive) | GI50 (DU-145): 31 µM (inactive) | GI50 (RXF 393): 22.6 µM (inactive) | GI50 (SK-MEL-5): 14.9 µM (inactive) | GI50 (Hs-578T): 24.9 µM (inactive) | GI50 (HL-60): 18.8 µM (inactive) | GI50 (EKVX): 34 µM (inactive) | GI50 (KM12): 59.8 µM (inactive) | GI50 (U-251): 24.4 µM (inactive) | GI50 (T47D): 17.8 µM (inactive) | GI50 (BT-549): 35.2 µM (inactive) | GI50 (MDA-MB-231): 19.1 µM (inactive) | GI50 (SK-MEL-28): 18.4 µM (inactive) | GI50 (TK-10): 37.9 µM (inactive)

N#CCCN(CCN(CCN(C(=O)Nc1ccccc1)c1ccccc1)C(=O)Nc1ccccc1)C(=O)Nc1ccccc1
GI50 (LOX IMVI): > 100 µM (inactive) | GI50 (SNB-19): > 100 µM (inactive) | GI50 (MOLT-4): 4.43 µM (inactive) | GI50 (MCF7): 24.7 µM (inactive) | GI50 (A549): > 100 µM (inactive) | GI50 (DU-145): > 100 µM (inactive) | GI50 (RXF 393): > 100 µM (inactive) | GI50 (SK-MEL-5): > 100 µM (inactive) | GI50 (Hs-578T): 26 µM (inactive) | GI50 (EKVX): 54.2 µM (inactive) | GI50 (KM12): 2.57 µM (inactive) | GI50 (U-251): 5.7 µM (inactive) | GI50 (T47D): 48.4 µM (inactive) | GI50 (BT-549): > 100 µM (inactive) | GI50 (MDA-MB-231): > 100 µM (inactive) | GI50 (SK-MEL-28): > 100 µM (inactive) | GI50 (TK-10): > 100 µM (inactive)

Cc1cc2c(cc1Cl)SC(N/N=C(\N)c1ccc(Cl)cc1)=NS2(=O)=O
GI50 (LOX IMVI): 43 µM (inactive) | GI50 (SNB-19): 77.4 µM (inactive) | GI50 (MOLT-4): 45.7 µM (inactive) | GI50 (MCF7): 14.1 µM (inactive) | GI50 (A549): 96.6 µM (inactive) | GI50 (NCI-H460): 52.7 µM (inactive) | GI50 (DU-145): > 100 µM (inactive) | GI50 (RXF 393): 90.2 µM (inactive) | GI50 (SK-MEL-5): > 100 µM (inactive) | GI50 (Hs-578T): 48.5 µM (inactive) | GI50 (HL-60): 40.5 µM (inactive) | GI50 (EKVX): 72.9 µM (inactive) | GI50 (KM12): 35.2 µM (inactive) | GI50 (U-251): 44.7 µM (inactive) | GI50 (T47D): 53.3 µM (inactive) | GI50 (BT-549): 46.7 µM (inactive) | GI50 (MDA-MB-231): 76.6 µM (inactive) | GI50 (SK-MEL-28): 54.7 µM (inactive) | GI50 (TK-10): > 100 µM (inactive)

Cc1ccc(C2=C(Cl)C(=O)C(c3ccc(C)cc3)=C(Cl)C2=O)cc1
GI50 (LOX IMVI): > 100 µM (inactive) | GI50 (SNB-19): > 100 µM (inactive) | GI50 (MOLT-4): > 100 µM (inactive) | GI50 (MCF7): > 100 µM (inactive) | GI50 (A549): > 100 µM (inactive) | GI50 (SR): > 100 µM (inactive) | GI50 (NCI-H460): > 100 µM (inactive) | GI50 (DU-145): > 100 µM (inactive) | GI50 (RXF 393): > 100 µM (inactive) | GI50 (SK-MEL-5): > 100 µM (inactive) | GI50 (Hs-578T): > 100 µM (inactive) | GI50 (HL-60): > 100 µM (inactive) | GI50 (EKVX): > 100 µM (inactive) | GI50 (KM12): > 100 µM (inactive) | GI50 (U-251): > 100 µM (inactive) | GI50 (T47D): > 100 µM (inactive) | GI50 (BT-549): > 100 µM (inactive) | GI50 (SK-MEL-28): > 100 µM (inactive) | GI50 (TK-10): > 100 µM (inactive)
